Assay results reported in patent US20250215071A1, “Novel Mcl-1 inhibitor and combination of Mcl-1 and a BH3 mimetic, such as a Bcl-2 inhibitor” (NETRIS PHARMA, priority 2022, published 2025).

System: HeLa UNC5B cells
Experiment: UNC5B-induced DNA fragmentation in HeLa UNC5B cells
Format: cell-based, Human
Settings: doxycycline-induced UNC5B; 18 hours
Protocol: FIG. 2. CRISPR-Cas9 screening identifies genes and molecular pathways involved in UNC5B-induced cell death. Related to FIG. 1. (A): UNC5B induction upon treatment with doxycycline. Stable HCT116 cells, inducible for UNC5B, were treated with the indicated concentrations of doxycycline (Dox). 24 hours later, protein levels of FLAG-UNC5B and GAPDH, used as housekeeping gene, were assessed by western blot. (B): UNC5B induction upon treatment with doxycycline on Hela cells. Stable Hela cells inducible for UNC5B (HeLa UNC5B) were treated with the indicated doses of Dox for 18 hours. Protein levels of His-UNC5B and β-actin, used as housekeeping gene, were measured by western blot. (C,D,E): Induction of UNC5B triggers apoptotic cell death in HCT116 cells. Stable HCTT16 cells inducible for human UNC5B were treated with Dox. To assess cell death, propidium iodide (PI) incorporation was followed in real-time up to 36 hours, using an Incucyte Zoom technology (n=3, ** p<0.01, Kolmogorov Smirnov test) (C). Apoptosis was assessed 18 hours after Dox treatment by DNA fragmentation through flow cytometry ([…] (D) and by caspase-3 activity (E), quantified by fluorometric detection kit (n=3, *p<0.05, ** p<0.01, *** p<0.001, Ordinary two-way ANOVA). Values are given as means±SEM. (F): Caspase inhibition rescues apoptosis triggered by UNC5B. HeLa UNC5B cells were treated with Dox and the pan-caspase inhibitor […] (QVD). 18 hours later, DNA fragmentation was evaluated by flow cytometry (n=3, **** p<0.0001, ordinary two-way ANOVA with Šidák's multiple comparisons test). Values are given as means±SEM. […] The number of guides showing an increase in reads compared to control condition is shown for each gene.
FIG. 4. […] 18 hours after treatment, apoptosis was measured by DNA fragmentation (A) and caspase-3 activity (B) (n=3-4, **** p<0.0001, ordinary two-way ANOVA with Tukey's multiple comparisons test). […] Protein levels of Mcl-1, Bcl-2 and Bcl-XL, as well as of UNC5B and B-actin, used as housekeeping gene, were evaluated by western blot. […]

**Q.** For `CC(C)C[C@H](NC(=O)[C@H](Cc1ccccc1)NC(=O)c1cnccn1)B(O)O` [bortezomib], which “UNC5B-induced apoptosis (DNA fragmentation)” value is on record?
**A.** suppressed
